US12570612B2, “Substituted nitrogen heterocyclic compound and anesthetic effect thereof” (priority 2019, dated 2026)
“Also recorded” adds a separate entry of the source. Read-outs that look alike come from different tables or passages of the source.

What was measured:
Sprague-Dawley rats [1] = assay: animal or person
Experimental: (§1) Adult male Sprague-Dawley rats (250-300 g) were selected for the experiment. […] The anesthesia effects of the compounds were assessed in rats using a LORR assay and a period >30 s was considered as an indicator of general anesthesia.

Sprague-Dawley rats [2] = assay: animal or person; remark: listed apart in the source
Experimental: as §1

[3] = test system: circulatory function of rats; conditions: rat, in vivo
[4] = test system: circulatory function of rats; assay: Circulatory function of rats (MAP, HR) by implanted telemetry, Group D compounds; conditions: 2ED50, rats, FIG. 19-22
Text: (§4) First, the animal model was established, and the left ventricular catheter, abdominal aorta catheter and electrocardiogram wire were placed. At least one week after the operation, the signal can be collected to start the test. At the beginning of the experiment, after the placement of the indwelling needle in the tail vein of rats, connect the extension tube, put the rats together with the feeding cage on the signal receiver and start collecting data. […] All compounds or drugs were given at a constant volume of 0.6 ml at a uniform rate of 0.1 ml/s.
Evaluation indexes: Collect the blood pressure, heart rate and other data of rats during and 15 minutes after administration, and judge the effect of the compound of the invention on the circulatory function of rats with the indexes of mean arterial pressure (MAP) and heart rate (HR).

[5] = test system: circulatory function of rats; conditions: rat, in vivo; remark: listed apart in the source
Experimental: First, animal models were established. […] At least one week after surgery, data were recorded.
Finally, the pharmacological effects, adverse reactions, and behavioral manifestations of the rats were observed and recorded
After data acquisition, the test was stopped.

Sprague-Dawley rats [6] = assay: animal or person; assay type: in vivo
Text: (§2) Evaluating indicator: The end point of anesthesia: LORR was used as the end point of anesthesia; General anesthesia effect: the disappearance of forepaw righting reflex in rats lasting for 30 seconds is taken as the index of general anesthesia effect; Anesthesia recovery index: the recovery of rat forepaw righting reflex was used as the index of anesthesia recovery.

Sprague-Dawley rats [7] = assay: Pharmacological characteristics at equivalent doses (2ED50), Group A compounds; assay type: in vivo; conditions: 2ED50, tail vein
H295R cell line [8] = assay: Adrenocortical function in vitro test: secretion of cortisol and corticosterone, Group B compounds; assay type: cell-based; conditions: H295R cells; for EC50: Homo sapiens, NCI-H295R, 0.1-10000 nM, HPLC-MS/MS
Sprague-Dawley rats [9] = assay: Pharmacological effect and adverse reactions under the equivalent dose (2ED50), Group D compounds; assay type: in vivo; conditions: rat, in vivo
Text: (§3) Evaluation index: onset time: from the completion of drug injection to the disappearance of forepaw righting reflex in rats; Duration of anesthesia: the time from the disappearance of rat forepaw righting reflex to the recovery of rat forepaw righting reflex; Recovery time of anesthesia: the time from the […] to complete recovery;

[10] = test system: circulatory function of rats; assay: Circulatory function of rats (MAP, HR) by implanted telemetry, Group C compounds; conditions: 2ED50, rats, FIG. 13-16
Text: as §4

Sprague-Dawley rats [11] = assay: Pharmacological effect and adverse reactions under the equivalent dose (2ED50), Group C compounds; assay type: in vivo; conditions: rat, in vivo
Text: as §3

Sprague-Dawley rats [12] = assay: animal or person; assay type: in vivo; remark: listed apart in the source
Text: as §2, with “the disappearance of forepaw righting reflex (lorr)” for “LORR”

H295R cell line [13] = assay: Adrenocortical function in vitro test: secretion of cortisol and corticosterone, Group A compounds; assay type: cell-based; conditions: H295 cells; for EC50: Homo sapiens, 0.1-10000 nM, HPLC-MS/MS
[14] = male, Sprague-Dawley, rat, in vivo
[15] = read-out: EC50 (Corticosterone)

Work on `CC(C)c1cccc(C(C)C)c1O` [Propofol, propofol, reference compound] yielded an ED50 (Sprague-Dawley rats [1]; Rattus norvegicus) of 5.51 mg/kg, a Minimal lethal dose (Sprague-Dawley rats [1]; [14]) of 28 mg/kg and an Approximate therapeutic index (Sprague-Dawley rats [1]; rats) of 5. It also gave an ED50 (Sprague-Dawley rats [2]; Rattus norvegicus) of 5.51 mg/kg, a Minimal lethal dose (Sprague-Dawley rats [2]; [14]) of 28 mg/kg and an Approximate therapeutic index (Sprague-Dawley rats [2]; rats) of 5. The “inhibitory effect on the circulatory function (MAP, HR)” value [3] was “significant inhibition of the circulatory function”, the “effect on the circulatory function (MAP, HR)” value [4] was “significant inhibition on the circulatory system function” and the “inhibitory effect on the circulatory function (MAP, HR)” value [5] was “significant inhibition of the circulatory function”. For the same compound, the ED50 (Sprague-Dawley rats [6]; Rattus norvegicus) was 5.01 mg/kg, the Minimal lethal dose (Sprague-Dawley rats [6]; [14]) was 22.6 mg/kg and the Approximate therapeutic index (Sprague-Dawley rats [6]; rats) was 4.0. The Onset time (Sprague-Dawley rats [7]) was 0.19 ± 0.03 min, the Righting reflex duration (Sprague-Dawley rats [7]) was 8.36 ± 2 min and the “Types and incidence of adverse reactions” value (Sprague-Dawley rats [7]; (animals affected/animals)) was “Intermittent Tremor(6/8),; also recorded: Bucking (5/8),; also recorded: Tongue stretching(4/8),; also recorded: Forelimb rigidity (2/8),; also recorded: Hindlimb rigidity(2/8)”. The “Corticosterone as an indicator to determine the presence of inhibition” value (H295R cell line [8]) was 0, the “Cortisol as an indicator to determine the presence of inhibition” value (H295R cell line [8]) was 0 and the EC50 (H295R cell line [8]; [15]) was greater than 10 µM. For the same compound, the EC50 (H295R cell line [8]; read-out: EC50 (Cortisol)) was greater than 10 µM, the “Adverse reaction: Convulsions” value (Sprague-Dawley rats [9]) was 0 and the “Adverse reaction: Cough, broken-winded” value (Sprague-Dawley rats [9]) was 0. The “Adverse reaction: Euphoria” value (Sprague-Dawley rats [9]) was 0, the “Adverse reaction: Four limbs rigidity” value (Sprague-Dawley rats [9]) was 1 and the “Adverse reaction: Slower breathing, Tetany convulsion” value (Sprague-Dawley rats [9]) was 2. For the same compound, the “Adverse reaction: Systemic stiffness, Convulsions, Opisthotonus” value (Sprague-Dawley rats [9]) was 0, the “Adverse reaction: Tongue stretching” value (Sprague-Dawley rats [9]) was 0 and the “Adverse reaction: Tremor” value (Sprague-Dawley rats [9]) was 2. The Onset time (Sprague-Dawley rats [9]) was less than 30 s, the Righting reflex duration (Sprague-Dawley rats [9]) was 8.53 ± 1.52 min and the Sedation duration (Sprague-Dawley rats [9]) was 14.77 ± 3.50 min. For the same compound, the “effect on the circulatory function (MAP, HR)” value [10] was “significant inhibition on the circulatory system function”, the “Adverse reaction: Convulsions” value (Sprague-Dawley rats [11]) was 0 and the “Adverse reaction: Cough, broken-winded” value (Sprague-Dawley rats [11]) was 0. For the same compound, the “Adverse reaction: Euphoria” value (Sprague-Dawley rats [11]) was 0, the “Adverse reaction: Slower breathing, Tetany convulsion” value (Sprague-Dawley rats [11]) was 2 and the “Adverse reaction: Systemic stiffness, Convulsions, Opisthotonus” value (Sprague-Dawley rats [11]) was 0. The “Adverse reaction: Tongue stretching” value (Sprague-Dawley rats [11]) was 0, the “Adverse reaction: Tremor” value (Sprague-Dawley rats [11]) was 0 and the “Adverse reaction: the four limbs rigidity” value (Sprague-Dawley rats [11]) was 2. It also gave an Onset time (Sprague-Dawley rats [11]) of less than 30 s, a Righting reflex duration (Sprague-Dawley rats [11]) of 8.53 ± 1.52 min and a Sedation duration (Sprague-Dawley rats [11]) of 14.77 ± 3.50 min. It also gave an ED50 (Sprague-Dawley rats [12]; Rattus norvegicus) of 5.01 mg/kg, a Minimal lethal dose (Sprague-Dawley rats [12]; [14]) of 22.6 mg/kg and an Approximate therapeutic index (Sprague-Dawley rats [12]; rats) of 4.0. The “Corticosterone as an indicator to determine the presence of inhibition” value (H295R cell line [13]) was 0, the “Cortisol as an indicator to determine the presence of inhibition” value (H295R cell line [13]) was 0 and the EC50 (H295R cell line [13]; [15]) was greater than 10 µM. The EC50 (H295R cell line [13]; read-out: EC50 (Cortisol)) was greater than 10 µM.
